From US8273724B2, “Melanoma antigens and their use in diagnostic and therapeutic methods” (The United States of America, as represented by the …, priority 1994, dated 2012)
Like-named read-outs stand apart in the source and are kept apart here. Where a SMILES comes first, the peptide text is derived from it.

What was measured:
[1] = system: T2 cell lines preincubated with peptide; experiment: Recognition of modified peptides by natural epitope (M9-2, G9-154, G9-209, G9-280) reactive T-cells, 51Cr release on peptide-pulsed T2 cells (Example 5); type: cell-based, human
Method: Assessment of antigen recognition by CTL. ^51Cr release cytotoxic assays were performed to detect the recognition of peptide and melanoma cells by CTL. To analyze peptide recognition, T2 cell lines were preincubated for 2 h at 37° C. with 1 ug/ml peptide, washed and used as target cells in a ^51Cr release cytotoxic assay. The melanoma lines 624mel was established in our laboratory (See Example 1).
In order to make more immunogenic peptides for induction of anti-melanoma T-cells than natural melanoma epitopes, a variety of peptides in which at least 1 amino acid was changed based on consensus motifs in peptides binding to a specific MHC Class I allele Falk, et al. (1991) Nature 351:290; Kubo et al. (1994) J. Immunol 152:3913; Parker, K. et al. (1992) Journal of Immunology 149:3580; Ruppert, J. et al. (1993) Cell 74:929-937) (Tables 14, 15, 16, and 17). […] By changing amino acid at the 1st, 2nd, 3rd or 9th positions which are important for HLA-A2 binding to the peptide, but less important for recognition by T-cell receptors, artificial peptides which can bind to HLA-A2.1 with higher affinity and still be recognized by natural epitope specific T-cells may be generated.

HLA-A2.1 = HLA-A2.1 (Homo sapiens, UniProt P04439, D140Y/D185E/D98H/E176V/E277Q/G131W/G231S/I119V/I121R/I166T/I218V/L300P/L318F/N151K/N90K/P208A/P217A/Q86G/Q94H/R138H/R169H/T345S); experiment: HLA-A2.1 binding assay of modified peptides, inhibition of radiolabeled Hbc 18-27 (Example 5); settings: for IC50: modified gp100 G9-154 peptides, read-out: Binding affinity to HLA-A2.1
HLA-A2.1+ T2 cells = settings: for % specific lysis at E:T = 40:1: peptide 1 ug/ml

Compound | Recognition by G9-209 reactive T-cell [1] | recognition by the original melanoma reactive T-cells [1] | binding affinity to HLA-A2.1 compared with the natural epitope (HLA-A2.1) | Recognition by G9-154 reactive T-cell [1] | IC50 (HLA-A2.1) [nM] | other results
CC(C)[C@H](NC(=O)[C@H](CO)NC(=O)[C@H](Cc1ccccc1)NC(=O)[C@@H]1CCCN1C(=O)[C@@H](NC(=O)[C@H](CCC(N)=O)NC(=O)[C@H](CC(=O)O)NC(=O)[C@@H](NC(=O)[C@@H](N)Cc1ccccc1)[C@@H](C)O)C(C)C)C(=O)O [G9-209-1F] | + (+, recognized) | recognized | higher binding affinity |  |  | 
CC(C)C[C@H](NC(=O)[C@@H](N)CCCCN)C(=O)N[C@@H](Cc1c[nH]c2ccccc12)C(=O)NCC(=O)N[C@@H](CCC(N)=O)C(=O)N[C@@H](Cc1ccc(O)cc1)C(=O)N[C@@H](Cc1c[nH]c2ccccc12)C(=O)N[C@@H](CCC(N)=O)C(=O)N[C@H](C(=O)O)C(C)C [G9-154-2L] (H-KLWGQYWQV-OH; N-terminus and C-terminus assumed) |  |  |  | + (+, recognized) | 2 | 
CC(C)[C@H](NC(=O)[C@H](CCC(N)=O)NC(=O)[C@H](Cc1c[nH]c2ccccc12)NC(=O)[C@H](Cc1ccc(O)cc1)NC(=O)[C@H](CCC(N)=O)NC(=O)CNC(=O)[C@H](Cc1c[nH]c2ccccc12)NC(=O)[C@@H](NC(=O)[C@@H](N)Cc1ccccc1)[C@@H](C)O)C(=O)O [G9-154-1F] (H-FTWGQYWQV-OH; N-terminus and C-terminus assumed) |  |  |  | − | 1.6 | 
CC[C@H](C)[C@H](N)C(=O)N[C@@H](CC(C)C)C(=O)N[C@@H](CC(=O)O)C(=O)N[C@@H](CCC(N)=O)C(=O)N[C@H](C(=O)N1CCC[C@H]1C(=O)N[C@@H](Cc1ccccc1)C(=O)N[C@@H](CO)C(=O)N[C@H](C(=O)O)C(C)C)C(C)C [G9-209-2L] | + (+, recognized) | recognized | higher binding affinity |  |  | 
CC[C@H](C)[C@H](NC(=O)CNC(=O)[C@@H](NC(=O)[C@H](Cc1ccc(O)cc1)NC(=O)[C@H](C)NC(=O)[C@H](C)N)[C@@H](C)CC)C(=O)N[C@@H](CC(C)C)C(=O)N[C@H](C(=O)N[C@H](C(=O)O)C(C)C)[C@@H](C)O [M9-2-3Y] |  | recognized | higher binding affinity |  |  | Recognition by M9-2 reactive T-cell [1]: + (+, recognized)
CC(C)[C@H](NC(=O)[C@H](CCC(N)=O)NC(=O)[C@H](Cc1c[nH]c2ccccc12)NC(=O)[C@H](Cc1ccc(O)cc1)NC(=O)[C@H](CCC(N)=O)NC(=O)CNC(=O)[C@H](Cc1c[nH]c2ccccc12)NC(=O)[C@@H](NC(=O)[C@H](C)N)[C@@H](C)O)C(=O)O [G9-154-1A] (H-ATWGQYWQV-OH; N-terminus and C-terminus assumed) |  |  |  | + (+, recognized) | 5.2 | 
CC(C)[C@H](NC(=O)[C@H](CCC(N)=O)NC(=O)[C@H](Cc1c[nH]c2ccccc12)NC(=O)[C@H](Cc1ccc(O)cc1)NC(=O)[C@H](CCC(N)=O)NC(=O)CNC(=O)[C@H](Cc1ccc(O)cc1)NC(=O)[C@@H](NC(=O)[C@@H](N)CCCCN)[C@@H](C)O)C(=O)O [G9-154-3Y] (H-KTYGQYWQV-OH; N-terminus and C-terminus assumed) |  |  |  | + (+, recognized) | 30 | 
CC(C)C[C@H](N)C(=O)N[C@H](C(=O)N[C@@H](Cc1c[nH]c2ccccc12)C(=O)NCC(=O)N[C@@H](CCC(N)=O)C(=O)N[C@@H](Cc1ccc(O)cc1)C(=O)N[C@@H](Cc1c[nH]c2ccccc12)C(=O)N[C@@H](CCC(N)=O)C(=O)N[C@H](C(=O)O)C(C)C)[C@@H](C)O [G9-154-1L] (H-LTWGQYWQV-OH; N-terminus and C-terminus assumed) |  |  |  | + (+, recognized) | 3.4 | 
CC(C)C[C@H](NC(=O)[C@@H](N)Cc1ccc(O)cc1)C(=O)N[C@@H](Cc1c[nH]c2ccccc12)C(=O)NCC(=O)N[C@@H](CCC(N)=O)C(=O)N[C@@H](Cc1ccc(O)cc1)C(=O)N[C@@H](Cc1c[nH]c2ccccc12)C(=O)N[C@@H](CCC(N)=O)C(=O)N[C@H](C(=O)O)C(C)C [G9-154-1Y2L] (H-YLWGQYWQV-OH; N-terminus and C-terminus assumed) |  |  |  | − | 1.7 | 
CC(C)C[C@H](NC(=O)[C@@H](N)CC(C)C)C(=O)N[C@@H](Cc1c[nH]c2ccccc12)C(=O)NCC(=O)N[C@@H](CCC(N)=O)C(=O)N[C@@H](Cc1ccc(O)cc1)C(=O)N[C@@H](Cc1c[nH]c2ccccc12)C(=O)N[C@@H](CCC(N)=O)C(=O)N[C@H](C(=O)O)C(C)C [G9-154-1L2L] (H-LLWGQYWQV-OH; N-terminus and C-terminus assumed) |  |  |  | + (+, recognized) | 1.6 | 
CC(C)[C@H](NC(=O)[C@H](CCC(N)=O)NC(=O)[C@H](Cc1c[nH]c2ccccc12)NC(=O)[C@H](Cc1ccc(O)cc1)NC(=O)[C@H](CCC(N)=O)NC(=O)CNC(=O)[C@H](Cc1c[nH]c2ccccc12)NC(=O)[C@@H](NC(=O)[C@@H](N)Cc1c[nH]c2ccccc12)[C@@H](C)O)C(=O)O [G9-154-1W] (H-WTWGQYWQV-OH; N-terminus and C-terminus assumed) |  |  |  | − | 60 | 
CC(C)C[C@H](NC(=O)[C@@H](N)Cc1ccc(O)cc1)C(=O)N[C@@H](CC(=O)O)C(=O)N[C@@H](CCC(N)=O)C(=O)N[C@H](C(=O)N1CCC[C@H]1C(=O)N[C@@H](Cc1ccccc1)C(=O)N[C@@H](CO)C(=O)N[C@H](C(=O)O)C(C)C)C(C)C [G9-209-1Y2L] | + (+, recognized) | recognized | higher binding affinity |  |  | 
CC[C@H](C)[C@H](N)C(=O)N[C@H](C(=O)N[C@@H](CC(=O)O)C(=O)N[C@@H](CCC(N)=O)C(=O)N[C@H](C(=O)N1CCC[C@H]1C(=O)N[C@@H](Cc1ccccc1)C(=O)N[C@@H](CO)C(=O)N[C@H](C(=O)O)C(C)C)C(C)C)[C@@H](C)CC [G9-209-2I] | + (+, recognized) | recognized | higher binding affinity |  |  | 
CC[C@H](C)[C@H](NC(=O)CNC(=O)[C@H](C)NC(=O)[C@@H](N)Cc1ccccc1)C(=O)NCC(=O)N[C@H](C(=O)N[C@@H](CC(C)C)C(=O)N[C@H](C(=O)N[C@H](C(=O)O)C(C)C)[C@@H](C)O)[C@@H](C)CC [M9-2-1F] |  | recognized | higher binding affinity |  |  | Recognition by M9-2 reactive T-cell [1]: + (+, recognized)
CC(C)C[C@H](NC(=O)[C@@H](N)Cc1c[nH]c2ccccc12)C(=O)N[C@@H](CC(=O)O)C(=O)N[C@@H](CCC(N)=O)C(=O)N[C@H](C(=O)N1CCC[C@H]1C(=O)N[C@@H](Cc1ccccc1)C(=O)N[C@@H](CO)C(=O)N[C@H](C(=O)O)C(C)C)C(C)C [G9-209-1W2L] | + (+, recognized) | recognized | higher binding affinity |  |  | 
CC[C@H](C)[C@H](NC(=O)[C@@H](N)[C@@H](C)O)C(=O)N[C@H](C(=O)N[C@@H](CC(=O)O)C(=O)N[C@@H](CCC(N)=O)C(=O)N[C@H](C(=O)N1CCC[C@H]1C(=O)N[C@@H](Cc1ccccc1)C(=O)N[C@@H](CO)C(=O)N[C@H](C(=O)O)C(C)C)C(C)C)[C@@H](C)O [G10208] |  |  |  |  |  | % specific lysis at E:T = 40:1 (HLA-A2.1+ T2 cells; Exp. 1, TIL 620-1): 42%; % specific lysis at E:T = 40:1 (HLA-A2.1+ T2 cells; Exp. 1, TIL 620-2): 36%; % specific lysis at E:T = 40:1 (HLA-A2.1+ T2 cells; Exp. 1, TIL 660-1): 7%; % specific lysis at E:T = 40:1 (HLA-A2.1+ T2 cells; Exp. 1, TIL 1143): 4%; % specific lysis at E:T = 40:1 (HLA-A2.1+ T2 cells; Exp. 1, TIL 1200): 2%; % specific lysis at E:T = 40:1 (HLA-A2.1+ T2 cells; Exp. 1, TIL 1235): 3%; % specific lysis at E:T = 40:1 (HLA-A2.1+ T2 cells; Exp. 2, TIL 620-1): 35%; % specific lysis at E:T = 40:1 (HLA-A2.1+ T2 cells; Exp. 2, TIL 620-2): 80%; % specific lysis at E:T = 40:1 (HLA-A2.1+ T2 cells; Exp. 2, TIL 660-2): 7%; % specific lysis at E:T = 40:1 (HLA-A2.1+ T2 cells; Exp. 2, TIL 1143): 10%; % specific lysis at E:T = 40:1 (HLA-A2.1+ T2 cells; Exp. 2, TIL 1200): 1%; % specific lysis at E:T = 40:1 (HLA-A2.1+ T2 cells; Exp. 2, TIL 1235): 5%; TIL that recognize the peptide (HLA-A2.1+ T2 cells; cytotoxicity assays, T2 preincubated with peptide): recognized only by TIL620
CC[C@H](C)[C@H](N)C(=O)N[C@H](C(=O)N[C@@H](Cc1c[nH]c2ccccc12)C(=O)N[C@@H](CCC(N)=O)C(=O)N[C@H](C(=O)N1CCC[C@H]1C(=O)N[C@@H](Cc1ccccc1)C(=O)N[C@@H](CO)C(=O)N[C@H](C(=O)O)C(C)C)C(C)C)[C@@H](C)O [G9-209-3W] | − |  |  |  |  | 
CC[C@H](C)[C@H](NC(=O)CNC(=O)[C@@H](NC(=O)[C@@H](N)CCCCN)[C@@H](C)CC)C(=O)NCC(=O)N[C@H](C(=O)N[C@@H](CC(C)C)C(=O)N[C@H](C(=O)N[C@H](C(=O)O)C(C)C)[C@@H](C)O)[C@@H](C)CC [M9-2-1K2I] |  |  |  |  |  | Recognition by M9-2 reactive T-cell [1]: −
